Source: ChEMBL document CHEMBL1201862, “PubChem BioAssay data set” (2004)
Calls of active or inactive are those of the source.

How the values were obtained:
[1] = molecular target: T1, Aspartyl aminopeptidase (Plasmodium falciparum 3D7, UniProt Q8I2J3); experiment: Counterscreen for inhibitors of M1 and M17 aminopeptidases: QFRET-based biochemical high throughput dose response assay for inhibitors of the Plasmodium falciparum M18 Aspartyl Aminopeptidase (PFM18AAP). [Related PubChem assays: 1619 (Screening assay (M17LAP inhibitors).), 1445 (Screening assay (M1AAP inhibitors).)]
T1 sequence (Q8I2J3 whole entry): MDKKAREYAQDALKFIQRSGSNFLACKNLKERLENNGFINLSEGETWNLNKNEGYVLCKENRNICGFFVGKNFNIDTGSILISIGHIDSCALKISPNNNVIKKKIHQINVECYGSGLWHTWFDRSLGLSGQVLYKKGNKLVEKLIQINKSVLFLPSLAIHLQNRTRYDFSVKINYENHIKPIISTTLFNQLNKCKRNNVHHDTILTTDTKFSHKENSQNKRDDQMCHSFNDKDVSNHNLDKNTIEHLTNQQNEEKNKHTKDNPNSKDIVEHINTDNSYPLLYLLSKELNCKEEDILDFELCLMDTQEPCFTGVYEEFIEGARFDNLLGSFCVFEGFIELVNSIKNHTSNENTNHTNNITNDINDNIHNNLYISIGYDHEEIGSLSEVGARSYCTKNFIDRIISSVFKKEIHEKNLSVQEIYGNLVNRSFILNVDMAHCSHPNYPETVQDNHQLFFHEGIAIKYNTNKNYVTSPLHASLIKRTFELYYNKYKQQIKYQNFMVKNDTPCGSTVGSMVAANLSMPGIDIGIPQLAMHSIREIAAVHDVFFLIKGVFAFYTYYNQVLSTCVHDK

[2] = molecular target: T2, Leucine aminopeptidase (Plasmodium falciparum 3D7, UniProt Q8IL11); experiment: P. falciparum M17LAP inhibitors, primary screen, biochemical, fluorogenic H-Leu-NHMec substrate, 1536-well (AID 1619); format: functional
T2 sequence (Q8IL11 whole entry): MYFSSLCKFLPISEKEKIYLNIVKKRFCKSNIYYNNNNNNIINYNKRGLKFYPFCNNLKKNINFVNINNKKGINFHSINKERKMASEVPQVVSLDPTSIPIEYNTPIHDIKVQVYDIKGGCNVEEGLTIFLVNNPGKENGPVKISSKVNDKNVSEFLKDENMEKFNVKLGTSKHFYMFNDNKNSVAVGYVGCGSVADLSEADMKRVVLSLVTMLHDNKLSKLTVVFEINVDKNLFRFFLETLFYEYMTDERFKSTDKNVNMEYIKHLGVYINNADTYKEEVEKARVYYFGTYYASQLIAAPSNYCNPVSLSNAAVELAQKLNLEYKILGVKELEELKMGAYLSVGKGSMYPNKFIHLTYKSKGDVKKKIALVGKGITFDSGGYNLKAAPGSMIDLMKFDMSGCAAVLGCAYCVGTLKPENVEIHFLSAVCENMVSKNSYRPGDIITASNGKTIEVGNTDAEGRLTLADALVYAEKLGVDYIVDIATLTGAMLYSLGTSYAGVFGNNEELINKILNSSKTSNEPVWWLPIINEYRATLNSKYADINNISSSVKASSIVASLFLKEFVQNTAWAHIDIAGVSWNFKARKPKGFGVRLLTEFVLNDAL

[3] = molecular target: Procathepsin L (Homo sapiens, UniProt P07711); experiment: cathepsin L inhibitors, dose response, counter-screen for M1/M17 aminopeptidase inhibitor project, biochemical, QFRET, 1536-well (AID 2214)
Sequence of Procathepsin L (P07711 whole entry): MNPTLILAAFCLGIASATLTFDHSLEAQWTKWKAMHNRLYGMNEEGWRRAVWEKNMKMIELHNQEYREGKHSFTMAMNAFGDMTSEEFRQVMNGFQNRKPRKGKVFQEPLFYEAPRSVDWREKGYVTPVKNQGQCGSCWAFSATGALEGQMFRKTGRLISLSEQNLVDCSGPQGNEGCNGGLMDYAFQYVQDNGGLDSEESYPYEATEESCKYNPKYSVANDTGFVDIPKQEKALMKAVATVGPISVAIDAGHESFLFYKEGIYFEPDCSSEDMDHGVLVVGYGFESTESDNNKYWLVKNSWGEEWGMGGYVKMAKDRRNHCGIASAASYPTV

[4] = molecular target: Paired box protein Pax-8 (Homo sapiens, UniProt Q06710); experiment: inhibitors of PAX8-driven TPO luciferase reporter, dose response, RMG-I cells, cherry-pick (AID 687027); format: functional, cell-based;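 further: luciferase reporter driven by Pax8 target thyroperoxidase promoter measured by SteadyGlo luminescence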
Sequence of Paired box protein Pax-8 (Q06710 whole entry): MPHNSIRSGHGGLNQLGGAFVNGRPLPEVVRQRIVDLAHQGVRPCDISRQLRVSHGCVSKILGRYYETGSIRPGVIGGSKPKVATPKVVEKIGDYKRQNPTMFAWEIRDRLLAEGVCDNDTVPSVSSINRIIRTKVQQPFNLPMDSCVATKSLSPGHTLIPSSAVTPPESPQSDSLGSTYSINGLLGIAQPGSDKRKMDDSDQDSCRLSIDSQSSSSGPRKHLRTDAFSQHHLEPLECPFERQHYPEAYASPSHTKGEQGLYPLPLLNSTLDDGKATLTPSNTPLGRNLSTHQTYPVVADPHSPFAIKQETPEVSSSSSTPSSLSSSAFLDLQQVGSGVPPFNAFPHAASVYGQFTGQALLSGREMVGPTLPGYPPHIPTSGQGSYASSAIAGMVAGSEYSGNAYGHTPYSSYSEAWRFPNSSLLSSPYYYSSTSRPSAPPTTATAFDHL

[5] = A Cell Based Secondary Assay To Explore Cytotoxicity of Compounds that Sensitize Mycobacterium Tuberculosis to Beta-Lactam Antibiotics.; format: functional
[6] = molecular target: T3, Microphthalmia-associated transcription factor (Homo sapiens, UniProt O75030); experiment: TRPM1 promoter luciferase signal decrease, dose response, MITF inhibitor project, cell-based, SK-MEL-5, cherry-picked, set 3 (AID 493073); format: functional
T3 sequence (O75030 whole entry): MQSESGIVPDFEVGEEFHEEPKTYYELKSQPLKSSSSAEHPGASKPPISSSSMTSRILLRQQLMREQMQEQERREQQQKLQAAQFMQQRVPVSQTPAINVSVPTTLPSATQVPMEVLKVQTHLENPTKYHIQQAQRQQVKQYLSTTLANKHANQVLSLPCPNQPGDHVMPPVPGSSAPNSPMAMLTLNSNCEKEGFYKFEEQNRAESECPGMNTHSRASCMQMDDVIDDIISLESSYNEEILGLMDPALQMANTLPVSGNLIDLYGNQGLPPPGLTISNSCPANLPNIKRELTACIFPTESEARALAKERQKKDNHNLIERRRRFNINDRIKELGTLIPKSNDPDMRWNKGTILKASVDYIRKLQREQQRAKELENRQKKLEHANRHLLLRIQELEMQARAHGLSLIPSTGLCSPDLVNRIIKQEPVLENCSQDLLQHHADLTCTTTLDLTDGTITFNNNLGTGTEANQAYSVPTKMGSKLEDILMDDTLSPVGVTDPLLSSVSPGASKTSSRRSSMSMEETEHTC

[7] = molecular target: Mothers against decapentaplegic homolog 3 (Homo sapiens, UniProt P84022); experiment: Smad3 binding inhibitors, lysate ELISA, dose response, cell lysate, secondary confirmation, chemiluminescent ELISA, HEK293 lysate (AID 1058); format: functional
Sequence of Mothers against decapentaplegic homolog 3 (P84022 whole entry): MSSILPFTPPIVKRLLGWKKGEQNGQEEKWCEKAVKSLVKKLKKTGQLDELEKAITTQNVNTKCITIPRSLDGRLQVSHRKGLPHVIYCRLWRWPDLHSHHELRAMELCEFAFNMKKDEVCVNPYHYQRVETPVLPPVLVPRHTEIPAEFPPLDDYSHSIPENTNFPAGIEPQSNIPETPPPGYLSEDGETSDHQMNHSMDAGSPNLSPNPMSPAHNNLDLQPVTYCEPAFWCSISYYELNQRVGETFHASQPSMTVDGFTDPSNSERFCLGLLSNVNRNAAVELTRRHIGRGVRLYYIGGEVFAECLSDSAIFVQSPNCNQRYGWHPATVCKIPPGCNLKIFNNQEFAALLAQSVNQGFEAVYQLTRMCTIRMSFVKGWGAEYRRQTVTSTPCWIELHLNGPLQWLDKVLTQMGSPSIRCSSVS

[8] = molecular target: Cytochrome P450 2D6 (Homo sapiens, UniProt P10635); experiment: qHTS Assay for Inhibitors and Substrates of Cytochrome P450 2D6. [Related pubchem assays: 410 ]; format: ADME; conditions: read-out: Potency
Sequence of Cytochrome P450 2D6 (P10635 whole entry): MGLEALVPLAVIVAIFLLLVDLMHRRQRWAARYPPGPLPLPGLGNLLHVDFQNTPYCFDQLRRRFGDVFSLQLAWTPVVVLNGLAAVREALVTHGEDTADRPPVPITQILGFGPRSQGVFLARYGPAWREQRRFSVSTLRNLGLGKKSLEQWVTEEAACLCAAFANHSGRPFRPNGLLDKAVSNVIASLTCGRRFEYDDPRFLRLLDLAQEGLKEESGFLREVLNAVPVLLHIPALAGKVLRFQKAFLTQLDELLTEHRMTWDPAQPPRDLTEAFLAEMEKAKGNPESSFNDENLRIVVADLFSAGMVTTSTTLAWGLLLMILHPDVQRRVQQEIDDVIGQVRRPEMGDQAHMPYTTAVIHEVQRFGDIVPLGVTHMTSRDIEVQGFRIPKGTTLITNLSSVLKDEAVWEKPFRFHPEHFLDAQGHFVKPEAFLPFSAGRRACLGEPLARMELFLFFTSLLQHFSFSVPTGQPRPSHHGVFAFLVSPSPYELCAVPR

[9] = Luminescence Cell-Based Dose Retest to Confirm Inhibitors of Cancer Stem Cells. [Related pubchem assays (depositor defined):AID2717, AID2721]; format: functional; conditions: Homo sapiens
[10] = molecular target: Heat shock protein HSP 90-alpha (Homo sapiens, UniProt P07900); format: functional, organism-based
[11] = molecular target: G-protein coupled receptor 55 (Homo sapiens, UniProt Q9Y2T6); experiment: GPR55 antagonists blocking LPI-driven arrestin recruitment, primary screen, imaging, U2OS, beta-arrestin-GFP, LPI agonist (AID 2013); format: functional;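 further: antagonist potency measured as reduced agonist-driven arrestin aggregation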
Sequence of G-protein coupled receptor 55 (Q9Y2T6 whole entry): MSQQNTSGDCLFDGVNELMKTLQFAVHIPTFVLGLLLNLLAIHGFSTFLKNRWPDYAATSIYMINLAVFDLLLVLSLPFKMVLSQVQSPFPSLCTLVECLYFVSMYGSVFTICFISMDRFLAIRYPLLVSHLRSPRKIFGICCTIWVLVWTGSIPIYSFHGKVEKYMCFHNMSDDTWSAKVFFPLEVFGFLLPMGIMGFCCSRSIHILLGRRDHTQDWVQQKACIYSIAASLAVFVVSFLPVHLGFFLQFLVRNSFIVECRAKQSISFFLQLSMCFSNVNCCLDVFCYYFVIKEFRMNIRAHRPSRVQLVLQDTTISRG

[12] = molecular target: T4, Alkaline phosphatase, tissue-nonspecific isozyme (Homo sapiens, UniProt P05186)
T4 sequence (P05186 whole entry): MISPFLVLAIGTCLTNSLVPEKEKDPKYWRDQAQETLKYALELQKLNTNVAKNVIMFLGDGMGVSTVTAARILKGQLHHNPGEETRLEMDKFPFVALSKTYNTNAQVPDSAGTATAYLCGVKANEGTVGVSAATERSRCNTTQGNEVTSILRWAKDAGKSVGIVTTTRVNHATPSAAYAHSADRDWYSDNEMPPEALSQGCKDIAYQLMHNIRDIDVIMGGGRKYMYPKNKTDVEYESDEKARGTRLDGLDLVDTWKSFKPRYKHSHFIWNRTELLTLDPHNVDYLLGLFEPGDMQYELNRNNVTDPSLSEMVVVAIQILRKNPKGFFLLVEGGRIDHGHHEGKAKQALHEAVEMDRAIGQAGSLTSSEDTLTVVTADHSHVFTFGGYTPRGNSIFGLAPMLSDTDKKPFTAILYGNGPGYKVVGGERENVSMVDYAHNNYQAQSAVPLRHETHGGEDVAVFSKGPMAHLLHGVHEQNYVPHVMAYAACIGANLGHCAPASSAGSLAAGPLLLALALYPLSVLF

[13] = Artemis endonuclease inhibitor potency, dose response, biochemical, fluorescence intensity (AID 720701); format: functional;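 further: Artemis endonuclease enzyme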
[14] = molecular target: Beta-galactosidase (Escherichia coli, UniProt Q8VNN2); experiment: PubChem AID 485352; format: functional
Sequence of Beta-galactosidase (Q8VNN2 whole entry): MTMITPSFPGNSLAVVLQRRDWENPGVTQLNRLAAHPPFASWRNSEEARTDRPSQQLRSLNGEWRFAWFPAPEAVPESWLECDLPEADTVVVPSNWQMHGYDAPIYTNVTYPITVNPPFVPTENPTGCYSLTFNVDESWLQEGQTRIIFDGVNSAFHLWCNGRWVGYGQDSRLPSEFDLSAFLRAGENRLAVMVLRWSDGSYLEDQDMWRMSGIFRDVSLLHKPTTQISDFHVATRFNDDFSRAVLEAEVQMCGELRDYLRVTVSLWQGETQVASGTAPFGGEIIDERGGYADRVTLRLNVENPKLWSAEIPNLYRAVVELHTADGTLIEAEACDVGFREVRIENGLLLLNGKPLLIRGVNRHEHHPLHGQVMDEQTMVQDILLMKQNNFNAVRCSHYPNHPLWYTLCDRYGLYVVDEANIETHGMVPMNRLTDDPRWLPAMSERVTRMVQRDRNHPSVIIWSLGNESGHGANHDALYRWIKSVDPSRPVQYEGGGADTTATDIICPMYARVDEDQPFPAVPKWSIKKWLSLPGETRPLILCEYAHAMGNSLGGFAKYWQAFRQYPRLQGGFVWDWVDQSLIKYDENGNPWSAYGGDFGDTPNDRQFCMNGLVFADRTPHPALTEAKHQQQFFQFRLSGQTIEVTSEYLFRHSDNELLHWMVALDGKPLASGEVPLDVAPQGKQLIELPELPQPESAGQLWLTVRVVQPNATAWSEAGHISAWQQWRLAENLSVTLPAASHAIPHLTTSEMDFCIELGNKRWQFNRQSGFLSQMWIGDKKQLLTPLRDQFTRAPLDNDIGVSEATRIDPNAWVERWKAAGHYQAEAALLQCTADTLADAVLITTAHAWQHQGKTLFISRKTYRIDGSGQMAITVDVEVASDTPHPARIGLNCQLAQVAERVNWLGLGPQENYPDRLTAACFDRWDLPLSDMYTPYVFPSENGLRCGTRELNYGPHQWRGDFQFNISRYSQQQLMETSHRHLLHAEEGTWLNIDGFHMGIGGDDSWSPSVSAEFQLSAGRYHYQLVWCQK

[15] = C. albicans growth with fluconazole, confirmation, fluorescence, retest (AID 2467); format: functional, cell-based
[16] = test system: INS1; experiment: beta cell apoptosis inhibitors, cytokine rescue, dose response, luminescence, retest (AID 449756); format: functional, cell-based; conditions: Rattus norvegicus;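 further: cell death triggered by IL-1 beta plus TNF-alpha plus IFN-gamma mixture; protective hits raise ATP signal compared with cytokine alone wells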
[17] = NIH-3T3 fibroblast cytotoxicity, dose response, cytotoxicity control, cell-based, fluorescence, Alamar Blue, secondary assay (AID 2327); format: functional;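 further: NIH-3T3 mouse fibroblasts cultured with fluconazole at 8 µg/mL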
[18] = test system: Vero; experiment: host cell cytotoxicity of antiviral hits, dose response, cytotoxicity control for West Nile virus antiviral project, secondary assay (AID 1650); format: functional; conditions: Chlorocebus sabaeus
[19] = molecular target: T5, Type-1 angiotensin II receptor (Homo sapiens, UniProt P30556); experiment: AT1 receptor antagonists, dose response, selectivity assay for APJ receptor antagonist project, cell-based, uHTS hits (AID 463214); format: functional;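 further: antagonist potency against angiotensin II stimulated AT1 response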
T5 sequence (P30556 whole entry): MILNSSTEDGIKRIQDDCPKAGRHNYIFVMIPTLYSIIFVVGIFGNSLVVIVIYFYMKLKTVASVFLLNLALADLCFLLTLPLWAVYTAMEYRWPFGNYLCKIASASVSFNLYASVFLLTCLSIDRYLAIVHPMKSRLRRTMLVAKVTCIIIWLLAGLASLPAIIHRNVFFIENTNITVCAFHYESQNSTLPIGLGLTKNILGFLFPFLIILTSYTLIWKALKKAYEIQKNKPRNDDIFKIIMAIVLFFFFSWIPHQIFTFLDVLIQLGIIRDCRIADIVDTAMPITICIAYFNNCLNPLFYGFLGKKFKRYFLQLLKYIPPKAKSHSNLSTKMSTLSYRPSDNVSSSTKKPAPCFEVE

[20] = molecular target: T6, Short transient receptor potential channel 4 (Mus musculus, UniProt Q9QUQ5); experiment: mouse TRPC4 channel activators, dose response, cell-based, HEK293 TRPC4/mu-opioid, Fluo-4 calcium (AID 434937); format: functional
T6 sequence (Q9QUQ5 whole entry): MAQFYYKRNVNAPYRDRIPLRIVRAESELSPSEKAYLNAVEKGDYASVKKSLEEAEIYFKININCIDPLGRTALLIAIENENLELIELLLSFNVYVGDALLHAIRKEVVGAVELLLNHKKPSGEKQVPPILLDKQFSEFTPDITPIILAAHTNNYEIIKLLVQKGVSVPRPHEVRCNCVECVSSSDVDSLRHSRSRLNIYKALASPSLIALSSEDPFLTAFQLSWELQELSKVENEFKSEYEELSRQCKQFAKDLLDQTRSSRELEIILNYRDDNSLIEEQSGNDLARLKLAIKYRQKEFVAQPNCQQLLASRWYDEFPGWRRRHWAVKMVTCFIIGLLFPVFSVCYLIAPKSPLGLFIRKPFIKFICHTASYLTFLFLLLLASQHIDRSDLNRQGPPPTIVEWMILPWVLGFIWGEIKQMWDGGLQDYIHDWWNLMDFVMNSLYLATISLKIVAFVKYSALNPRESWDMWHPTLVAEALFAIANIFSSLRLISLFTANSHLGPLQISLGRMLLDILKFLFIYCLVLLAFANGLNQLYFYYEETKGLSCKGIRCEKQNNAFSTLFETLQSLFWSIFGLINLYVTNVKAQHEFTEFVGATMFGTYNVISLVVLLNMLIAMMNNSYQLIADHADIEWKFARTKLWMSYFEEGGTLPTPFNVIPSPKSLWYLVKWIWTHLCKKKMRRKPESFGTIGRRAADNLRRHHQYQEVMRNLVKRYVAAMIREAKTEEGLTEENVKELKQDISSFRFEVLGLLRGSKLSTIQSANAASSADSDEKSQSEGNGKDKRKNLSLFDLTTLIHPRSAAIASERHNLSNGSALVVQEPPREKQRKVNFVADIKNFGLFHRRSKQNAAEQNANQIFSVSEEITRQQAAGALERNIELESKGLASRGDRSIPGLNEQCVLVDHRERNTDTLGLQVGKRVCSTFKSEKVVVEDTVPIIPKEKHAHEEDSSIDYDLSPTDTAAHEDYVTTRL

[21] = molecular target: 14-3-3 protein gamma (Homo sapiens, UniProt P61981); experiment: modulators of 14-3-3 gamma client binding – dose response (AID 711); format: functional
Sequence of 14-3-3 protein gamma (P61981 whole entry): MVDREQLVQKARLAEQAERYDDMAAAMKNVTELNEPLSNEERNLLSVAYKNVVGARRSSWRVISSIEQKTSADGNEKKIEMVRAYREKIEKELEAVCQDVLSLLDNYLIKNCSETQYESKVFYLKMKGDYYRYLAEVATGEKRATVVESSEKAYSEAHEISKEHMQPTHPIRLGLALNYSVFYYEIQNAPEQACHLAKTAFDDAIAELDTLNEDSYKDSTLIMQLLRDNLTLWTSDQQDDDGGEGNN

## COC(=O)c1c(-c2cc(C)ccc2C)csc1NC(=O)C1CC=CCC1C(=O)O (stereo not drawn)
[1]
  IC50: > 73.5 µM (not active)
[2]
  IC50: < 1 µM (active)
[3]
  IC50: > 59.6 µM (not active)

## C=C1C(=O)O[C@@H]2[C@H]1[C@@H](OC(=O)/C(C)=C/C)C/C(C)=C\C(=O)/C=C(\C)[C@@H]2O
[4]
  AC50: 4.03 µM (active)
[5]
  CC50: 4.26 µM (active)
[6]
  AC50: 7.07 µM (active)

## COc1ccc(C(c2cc3c(cc2O)OCO3)N2CCOCC2)c(OC)c1 (stereo not drawn)
[7]
  IC50: > 40 µM (not active)

## COc1cc2c(cc1O)CCN[C@H]2C
[8]
  AC50: 20 µM (inconclusive)

## c1ccc(-c2c(-c3ccccc3)n(Cc3ccco3)c3ncnc(NCCCn4ccnc4)c23)cc1
[9]
  AC50: 5.23 µM (active)
[10]
  AC50: 2.53 µM (active)
[11]
  IC50: 2.09 µM (active)
[12]
  EC50: 63 µM (not active)
[13]
  IC50: 17.8 µM (active)

## CC(C)(C)C(=O)NC(=S)NNC(=O)c1ccc(-c2ccccc2)cc1
[14]
  EC50: > 40 µM (inactive)
[15]
  EC50: 0.694 µM (active)
[16]
  AC50: 2.14 µM (active)
[17]
  EC50: 3.25 µM (active)
[18]
  CC50: 4.57 µM (active)
[19]
  IC50: 10.8 µM (active)
[20]
  EC50: 1.5 µM (active)

## Cc1sc(NC(=O)C2CC(Cl)=CCC2C(=O)O)c(C#N)c1C (stereo not drawn)
[1]
  IC50: > 73.5 µM (not active)
[2]
  IC50: 1.73 µM (active)
[3]
  IC50: > 59.6 µM (not active)

## CCCCc1ccc(NC(=S)NCCc2ccc(S(N)(=O)=O)cc2)cc1
[12]
  EC50: > 100 µM (not active)

## O=C1C=CC(=C(c2ccc(O)c(O)c2)c2ccccc2S(=O)(=O)O)C=C1O [PYROCATECHOL VIOLET]
[7]
  IC50: 3.28 µM (not active)

## CCN(CC)CCNCC1C(=O)O[C@@H]2C[C@@]3(C)CCC[C@H](C)C3=C[C@H]12 (stereo partly drawn)
[18]
  CC50: > 100 µM (active)

## COc1ccc(OC2C=CC(c3ccccc3)OC2CO)cc1 (stereo not drawn)
[8]
  AC50: 6.31 µM (inconclusive)

## CCOc1ccc2[nH]c(=O)c(CN(CC3COCCO3)C(=O)C3CC3)cc2c1 (stereo not drawn)
[21]
  IC50: > 50 µM (not active)
